Test results taken from US20100168097A1, “Non-Nucleoside Reverse Transcriptase Inhibitors” (priority 2005, published 2010).
Read-outs that look alike come from different tables or passages of the source.

What was measured:
[1] = tested on: acute HIV infection of T-lymphoid cells; experiment: Assay for inhibition of HIV replication (spread assay); type: cell-based; conditions: Human immunodeficiency virus 1; inhibition of HIV replication in T-lymphoid cells
Procedure: An assay for the inhibition of acute HIV infection of T-lymphoid cells (alternatively referred to herein as the “spread assay”) was conducted in accordance with Vacca, J. P. et al., Proc. Natl. Acad. Sci. USA 1994, 91: 4096. […] The compounds of Examples 2-4 and 22 were not tested.

[2] = target: T1, mutant HIV reverse transcriptase, Y181C mutation (Human immunodeficiency virus type 1 group M subtype B, UniProt P04585, Y768C); experiment: Analogous RT inhibition assay, Y181C mutant; type: biochemical
T1 construct: made in house
Procedure: (§1) 100 μL reaction mixtures were initiated with a combination of primer-template substrate (10 nM final concentration) and dNTPs (0.6 μM dNTPs, 0.75 μM [^3H]-dGTP). The heterodimeric nucleic acid substrate was generated by annealing the DNA primer pD500 (described in Shaw-Reid et al., J. Biol. Chem., 278: 2777-2780; obtained from Integrated DNA Technologies) to t500, a 500 nucleotide RNA template created by in vitro transcription (see Shaw-Reid et al., J. Biol. Chem., 278: 2777-2780). After 1 hour incubation at 37° C., reactions were quenched by 10 μL streptavidin scintillation proximity assay beads (10 mg/mL, from Amersham Biosciences) in 0.5 M EDTA, pH 8. Microtiter plates were incubated an additional 10 minutes at 37° C. prior to quantification via Topcount (Packard).
(§2) Analogous assays were conducted substituting mutant HIV strains to determine the […] inhibition of compounds of the present invention against mutant HIV reverse transcriptase. In one strain the reverse transcriptase has the Y181C mutation and in the other strain the reverse transcriptase has the K103N mutation. The mutations were generated with the […] site-directed mutagenesis kit (Stratagene).

[3] = target: T2, mutant HIV reverse transcriptase, K103N mutation (Human immunodeficiency virus type 1 group M subtype B, UniProt P04585, K690N); experiment: Analogous RT inhibition assay, K103N mutant; type: biochemical
T2 construct: made in house
Procedure: as §1, §2

[4] = Y181C mutant RT, tested up to 20 micromolar, read-out: IC50, Y181C mutant assay
[5] = K103N mutant RT, tested up to 20 micromolar, read-out: IC50, K103N mutant assay

## O=S(=O)(c1c(-c2nc(-c3ccc(F)c(F)c3)c[nH]2)[nH]c2ccc(Br)cc12)N1CCCC1 [Example 26, 5-bromo-2-[4-(3,4-difluorophenyl)-1H-imidazol-2-yl]-3-(pyrrolidin-1-ylsulfonyl)-1H-indole]
[1]
  IC95: < 1000 nM
[2]; [4]
  IC50: > 20000 nM
[3]; [5]
  IC50: < 1000 nM

## Cc1cnc(-c2[nH]c3ccc(Cl)cc3c2S(=O)(=O)CC2CCC2)[nH]1 [Example 34, 5-Chloro-3-[(cyclobutylmethyl)sulfonyl]-2-(5-methyl-1H-imidazol-2-yl)-1H-indole]
[1]
  IC95: < 1000 nM
[2]; [4]
  IC50: < 1000 nM
[3]
  IC50: > 3000 nM

## O=S(=O)(c1ccccc1)c1c(-c2noc(COc3ccccc3)n2)[nH]c2ccc(Cl)cc12 [Example 9, 5-chloro-2-[5-(phenoxymethyl)-1,2,4-oxadiazol-3-yl]-3-(phenylsulfonyl)-1H-indole]
[1]
  IC95: < 1000 nM
[2]; [4]
  IC50: > 20000 nM
[3]; [5]
  IC50: > 20000 nM

## O=S(=O)(c1ccccc1)c1c(-c2nc(-c3ccccn3)cs2)[nH]c2ccc(Cl)cc12 [Example 3, 5-chloro-3-(phenylsulfonyl)-2-(4-pyridin-2-yl-1,3-thiazol-2-yl)-1H-indole]
[2]; [4]
  IC50: > 20000 nM
[3]; [5]
  IC50: > 20000 nM

## CCC(OC)c1cnc(-c2[nH]c3ccc(Br)cc3c2S(=O)(=O)N2CCCC2)[nH]1 (stereo not drawn) [Example 21, 5-bromo-2-[4-(1-methoxypropyl)-1H-imidazol-2-yl]-3-(pyrrolidin-1-ylsulfonyl)-1H-indole]
[1]
  IC95: < 1000 nM
[2]
  IC50: 1000 to 20000 nM
[3]; [5]
  IC50: < 1000 nM

## O=S(=O)(c1c(-c2nc(-c3ccc(F)cc3F)c[nH]2)[nH]c2ccc(Br)cc12)N1CCCC1 [Example 22, 5-bromo-2-[4-(2,4-difluorophenyl)-1H-imidazol-2-yl]-3-(pyrrolidin-1-ylsulfonyl)-1H-indole]
[2]; [4]
  IC50: > 20000 nM
[3]; [5]
  IC50: < 1000 nM

## CCC(CC)S(=O)(=O)c1c(-c2ncc(C)[nH]2)[nH]c2ccc(Cl)cc12 [Example 37, 5-chloro-3-[(pent-3-yl)sulfonyl]-2-(5-methyl-1H-imidazol-2-yl)-1H-indole]
[1]
  IC95: < 1000 nM
[2]; [4]
  IC50: < 1000 nM
[3]
  IC50: > 10000 nM

## O=S(=O)(c1ccccc1)c1c(-c2nc(-c3cccnc3)cs2)[nH]c2ccc(Cl)cc12 [Example 4, 5-chloro-3-(phenylsulfonyl)-2-(4-pyridin-3-yl-1,3-thiazol-2-yl)-1H-indole]
[2]; [4]
  IC50: > 20000 nM
[3]; [5]
  IC50: > 20000 nM

## COCc1nc(-c2[nH]c3ccc(Cl)cc3c2S(=O)(=O)c2ccccc2)no1 [Example 1, 5-chloro-2-[5-(methoxymethyl)-1,2,4-oxadiazol-3-yl]-3-(phenylsulfonyl)-1H-indole]
[1]
  IC95: < 1000 nM
[2]
  IC50: > 20000 nM
[3]
  IC50: > 20000 nM

## N#Cc1ccc(-c2c[nH]c(-c3[nH]c4ccc(Br)cc4c3S(=O)(=O)N3CCCC3)n2)cc1 [Example 33, 4-{2-[5-bromo-3-(pyrrolidin-1-ylsulfonyl)-1H-indol-2-yl]-1H-imidazol-4-yl}benzonitrile]
[1]
  IC95: < 1000 nM
[2]
  IC50: > 20000 nM
[3]; [5]
  IC50: < 1000 nM

## COc1ccc(-c2c[nH]c(-c3[nH]c4ccc(Br)cc4c3S(=O)(=O)N3CCCC3)n2)cc1 [Example 28, 5-bromo-2-[4-(4-methoxyphenyl)-1H-imidazol-2-yl]-3-(pyrrolidin-1-ylsulfonyl)-1H-indole]
[1]
  IC95: < 1000 nM
[2]; [4]
  IC50: 1000 to 20000 nM
[3]; [5]
  IC50: < 1000 nM

## O=S(=O)(c1c(-c2nc(-c3ccc(F)cc3)c[nH]2)[nH]c2ccc(Br)cc12)N1CCCC1 [Example 25, 5-bromo-2-[4-(4-fluorophenyl)-1H-imidazol-2-yl]-3-(pyrrolidin-1-ylsulfonyl)-1H-indole]
[1]
  IC95: < 1000 nM
[2]; [4]
  IC50: > 20000 nM
[3]; [5]
  IC50: < 1000 nM

## O=[N+]([O-])c1ccc(-c2c[nH]c(-c3[nH]c4ccc(Br)cc4c3S(=O)(=O)N3CCCC3)n2)cc1 [Example 32, 5-bromo-2-[4-(4-nitrophenyl)-1H-imidazol-2-yl]-3-(pyrrolidin-1-ylsulfonyl)-1H-indole]
[1]
  IC95: < 1000 nM
[2]
  IC50: 1000 to 20000 nM
[3]; [5]
  IC50: < 1000 nM

## O=S(=O)(c1c(-c2nc(-c3ccc(N4CCOCC4)cc3)c[nH]2)[nH]c2ccc(Br)cc12)N1CCCC1 [Example 19, 5-bromo-2-[4-(4-morpholin-4-ylphenyl)-1H-imidazol-2-yl]-3-(pyrrolidin-1-ylsulfonyl)-1H-indole]
[1]
  IC95: < 1000 nM
[2]
  IC50: > 20000 nM
[3]; [5]
  IC50: < 1000 nM

## O=S(=O)(c1ccccc1)c1c(-c2noc([C@@H]3C[C@H]3c3ccccc3)n2)[nH]c2ccc(Cl)cc12 [Example 8, 5-chloro-2-{5-[(1R,2R)-2-phenylcyclopropyl]-1,2,4-oxadiazol-3-yl}-3-(phenylsulfonyl)-1H-indole]
[1]
  IC95: 2500 nM
[2]; [4]
  IC50: > 20000 nM
[3]; [5]
  IC50: > 20000 nM

## O=S(=O)(c1ccccc1)c1c(-c2noc(Cc3ccccc3)n2)[nH]c2ccc(Cl)cc12 [Example 14, 2-(5-benzyl-1,2,4-oxadiazol-3-yl)-5-chloro-3-(phenylsulfonyl)-1H-indole]
[1]
  IC95: < 1000 nM
[2]; [4]
  IC50: > 20000 nM
[3]; [5]
  IC50: > 20000 nM

## O=S(=O)(c1ccccc1)c1c(-c2noc(C3CCC3)n2)[nH]c2ccc(Cl)cc12 [Example 13, 5-chloro-2-(5-cyclobutyl-1,2,4-oxadiazol-3-yl)-3-(phenylsulfonyl)-1H-indole]
[1]
  IC95: < 1000 nM
[2]; [4]
  IC50: > 20000 nM
[3]; [5]
  IC50: > 20000 nM

## O=S(=O)(c1ccccc1)c1c(-c2noc(-c3ccc(F)cc3F)n2)[nH]c2ccc(Cl)cc12 [Example 11, 5-chloro-2-[5-(2,4-difluorophenyl)-1,2,4-oxadiazol-3-yl]-3-(phenylsulfonyl)-1H-indole]
[1]
  IC95: < 1000 nM
[2]; [4]
  IC50: > 20000 nM
[3]; [5]
  IC50: > 20000 nM

## O=S(=O)(c1c(-c2nc(-c3ccc(Cl)cc3)c[nH]2)[nH]c2ccc(Br)cc12)N1CCCC1 [Example 24, 5-bromo-2-[4-(4-chlorophenyl)-1H-imidazol-2-yl]-3-(pyrrolidin-1-ylsulfonyl)-1H-indole]
[1]
  IC95: < 1000 nM
[2]; [4]
  IC50: > 20000 nM
[3]; [5]
  IC50: < 1000 nM

## O=S(=O)(c1ccccc1)c1c(-c2noc(-c3ccncc3)n2)[nH]c2ccc(Cl)cc12 [Example 10, 5-chloro-3-(phenylsulfonyl)-2-(5-pyridin-4-yl-1,2,4-oxadiazol-3-yl)-1H-indole]
[1]
  IC95: < 1000 nM
[2]
  IC50: 1000 to 20000 nM
[3]; [5]
  IC50: > 20000 nM

## CCc1nc(-c2[nH]c3ccc(Cl)cc3c2S(=O)(=O)c2ccccc2)no1 [Example 15, 5-chloro-2-(5-ethyl-1,2,4-oxadiazol-3-yl)-3-(phenylsulfonyl)-1H-indole]
[1]
  IC95: < 1000 nM
[2]; [4]
  IC50: > 20000 nM
[3]; [5]
  IC50: > 20000 nM

## Cc1cnc(-c2[nH]c3ccc(Cl)cc3c2S(=O)(=O)C2CCCC2)[nH]1 [Example 35, 5-chloro-3-[(cyclopentyl)sulfonyl]-2-(5-methyl-1H-imidazol-2-yl)-1H-indole]
[1]
  IC95: < 1000 nM
[2]; [4]
  IC50: < 1000 nM
[3]
  IC50: < 1000 nM

## O=S(=O)(c1c(-c2ncc(-c3ccccc3)[nH]2)[nH]c2ccc(Br)cc12)N1CCCC1 [Example 23, 5-bromo-2-(4-phenyl-1H-imidazol-2-yl)-3-(pyrrolidin-1-ylsulfonyl)-1H-indole]
[1]
  IC95: < 1000 nM
[2]; [4]
  IC50: > 20000 nM
[3]; [5]
  IC50: < 1000 nM

## O=S(=O)(c1c(-c2nc(-c3ccc(O)cc3)c[nH]2)[nH]c2ccc(Br)cc12)N1CCCC1 [Example 27, 4-{2-[5-bromo-3-(pyrrolidin-1-ylsulfonyl)-1H-indol-2-yl]-1H-imidazol-4-yl}phenol]
[1]
  IC95: < 1000 nM
[2]; [4]
  IC50: 1000 to 20000 nM
[3]; [5]
  IC50: < 1000 nM
